Measurements published in patent US6506901B2, “Substituted 2-(S)-hydroxy-3-(piperidin-4-yl-methylamino)-propyl ethers and substituted 2-aryl-2-(R)-hydroxy-1-(piperidin-4-yl-methyl)-ethylamine β-3 adrenergic receptor agonists” (Wyeth, priority 2000, dated 2003).

Target: T1, human β3 receptors (Homo sapiens, UniProt P13945)
T1 construct: Full length β3 AR clones (402 amino acids) containing the last 6 amino acids of hβ3—AR; expressed in transfected cells; host or cells: CHO cells
Test: cAMP response (SPA) in CHO cells expressing cloned human β3 adrenergic receptor
Type: cell-based
Conditions: for EC50: CHO cells expressing human β3 receptor, cAMP, 30 min incubation, 10^−9 M to 10^−5 M; for IA(β3): maximal response compared to the maximal response of isoproterenol at 10^−5 M
Description: Binding to the receptors was measured in Chinese Hamster ovary (CHO) cells that were transfected with adrenergic receptors.
Cloning of Human β3-AR Genomic DNA: cDNA was constructed by ligating four polymerase chain reaction (PCR) products using the following primers: an ATG-NarI fragment, sense primer 5′-[…]3′ and anti-sense primer 5′ […]3′; a NarI-AccI fragment, 5′ […]3′ as sense and 5′ […]3′ as anti-sense primer; an AccIi-StyI fragment, sense primer 5′ […]3′ and anti-sense primer 5′ […]3′ and a StyI-TAG fragment, with sense primer 5′ […]3′ and anti-sense primer 5′ […]3′. The corresponding primer sequences are described in Mantzoros, C. […] The four fragments are ligated into a pUC 18 plasmid (Gibco-BRL) and sequenced.
CHO cells were grown in 24-well tissue culture plates in Dulbecco's Modified Eagle Media with 10% fetal bovine serum, MEM non-essential amino acids, Penicillin-Streptompycin and Geneticin. […] Isoproterenol (10^−5 M) was used as an internal standard for comparison of activity. Cells were incubated at 37° C. on a rocker for 30 min with the β3 cells and 15 min for β1 and β2 cells. Incubation was stopped with the addition of 0.2N HCl and neutralized with 2.5N NaOH. The plates, containing the cells and neutralized media, were stored at −20 degrees celsius until ready to test for cAMP using the SPA test kit (Amersham).
Data Analysis and Results: Data collected from the SPA test procedure were analyzed as per cent of the maximal isoproterenol response at 10^−5 M. Activity curves were plotted using the SAS statistical and graphics software.

T1 sequence (P13945 whole entry): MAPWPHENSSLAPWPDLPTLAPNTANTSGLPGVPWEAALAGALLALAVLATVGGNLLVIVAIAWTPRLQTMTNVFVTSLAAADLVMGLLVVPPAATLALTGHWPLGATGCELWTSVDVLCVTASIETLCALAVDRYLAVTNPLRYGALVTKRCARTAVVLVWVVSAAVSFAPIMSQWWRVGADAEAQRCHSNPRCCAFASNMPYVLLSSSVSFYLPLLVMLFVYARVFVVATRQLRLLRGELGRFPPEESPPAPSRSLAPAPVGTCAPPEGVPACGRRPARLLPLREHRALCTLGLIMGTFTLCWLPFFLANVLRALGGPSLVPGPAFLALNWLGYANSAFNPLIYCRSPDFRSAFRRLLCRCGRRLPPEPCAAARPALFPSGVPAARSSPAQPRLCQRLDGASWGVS

## CCOC(=O)c1cccc(NC(=O)N2CCC(CNC[C@H](O)COc3ccc(O)cc3)CC2)c1 [Example 52, 3-[(4-{[(2S)-2-Hydroxy-3-(4-hydroxy-phenoxy)-propylamino]-methyl}-piperidine-1-carbonyl)-amino]-benzoic Acid Ethyl Ester]
  EC50: 305 nM
  IA(β3): 0.9

## O=C(NC1CCCCC1)N1CCC(CNC[C@H](O)COc2cccc3[nH]c4ccccc4c23)CC1 [Example 56, 4-{[(2S)-3-(9H-Carbazol-4-yloxy)-2-hydroxy-propylamino]-methyl}-piperidine-1-carboxylic Acid Cyclohexylamide]
  EC50: 110 nM
  IA(β3): 0.53

## O=C(NC1CCCCC1)N1CCC(CNC[C@H](O)COc2ccc(O)cc2)CC1 [Example 57, 4-{[(2S)-2-Hydroxy-3-(4-hydroxy-phenoxy)-propylamino]-methyl}-piperidine-1-carboxylic Acid Cyclohexylamide]
  EC50: 3190 nM
  IA(β3): 0.46

## Cc1cc2cccc(OC[C@@H](O)CNCC3CCN(S(=O)(=O)c4ccc(NC(=O)Nc5ccccc5)cc4)CC3)c2[nH]1 [Example 61, 1-[4-(4-{[(2S)-2-Hydroxy-3-(2-methyl-1H-indol-7-yloxy)-propylamino]-methyl}-piperidine-1-sulfonyl)-phenyl]-3-phenyl-urea]
  EC50: 97 nM
  IA(β3): 0.4

## O=C(Nc1ccccc1)Nc1ccc(S(=O)(=O)N2CCC(CNC[C@H](O)COc3cccc4[nH]c(=O)[nH]c34)CC2)cc1 [Example 62, 1-[4-(4-{[2-Hydroxy-3-(2-oxo-2,3-dihydro-1H-benzoimidazol-4-yloxy)-propylamino]-methyl}-piperidine-1-sulfonyl)-phenyl]-3-phenyl-urea]
  EC50: 10 nM
  IA(β3): 0.68

## CS(=O)(=O)Nc1cc([C@@H](O)CNCC2CCN(S(=O)(=O)c3ccc(NC(=O)Nc4ccccn4)cc3)CC2)ccc1O [Example 67, N-{2-Hydroxy-5-[(1R)-1-hydroxy-2-({1-[4-(3-pyridin-2-yl-ureido)-benzenesulfonyl]-piperidin-4-ylmethyl}-amino)-ethyl]-phenyl}-methanesulfonamide]
  EC50: 20 nM
  IA(β3): 1.2

## CCCCCCCCNC(=O)Nc1ccc(S(=O)(=O)N2CCC(CNCC(O)COc3cccc4[nH]c(C(N)=O)cc34)CC2)cc1 (stereo not drawn) [Example 71, 4-[2-Hydroxy-3-({1-[4-(3-octyl-ureide)-benzenesulfonyl]-piperidin-4-ylmethyl}-amino)-propoxy]-1H-indole-2-carboxylic Acid Amide]
  EC50: 96 nM
  IA(β3): 0.6

## CCCCCCCCNC(=O)Nc1ccc(S(=O)(=O)N2CCC(CNC[C@H](O)c3ccc(O)c(NS(C)(=O)=O)c3)CC2)cc1 [Example 73, (R)-N-{2-Hydroxy-5-[1-hydroxy-2-({1-[4-(3-octyl-ureido)-benzenesulfonyl]-piperidin-4-ylmethyl}-amino)-ethyl]-phenyl}-methanesulfonamide]
  EC50: 6 nM
  IA(β3): 1

## CS(=O)(=O)Nc1cc([C@@H](O)CNCC2CCN(S(=O)(=O)c3ccc(NC(=O)NCCc4cc(F)ccc4F)cc3)CC2)ccc1O [Example 81, N-{5-[(1R)-2-({[1-({4-[({[2-(2,5-difluorophenyl)ethyl]amino]-carbonyl)amino}-phenyl}sulfonyl)piperidin-4-yl]methyl}amino)-1-hydroxyethyl]-2-hydroxyphenyl}-methanesulfonamide]
  EC50: 5 nM
  IA(β3): 1.1

## O=C(Nc1ccc(S(=O)(=O)N2CCC(CNC[C@H](O)COc3ccc(O)cc3)CC2)cc1)Nc1c(F)cccc1F [Example 83]
  EC50: 112 nM
  IA(β3): 1.2

## CC(C)N(Cc1c(F)cccc1F)C(=O)Nc1ccc(S(=O)(=O)N2CCC(CNC[C@H](O)c3ccc(O)c(NS(C)(=O)=O)c3)CC2)cc1 [Example 84, N-(5-{(1R)-2-[(1-{4-[3-(2,6-Difluoro-benzyl)-3-isopropyl-ureido]-benzenesulfonyl}-piperidin-4-ylmethyl)-amino]-1-hydroxy-ethyl}-2-hydroxy-phenyl)-methane-sulfonamide]
  EC50: 27 nM
  IA(β3): 0.93

## CN(Cc1c(F)cccc1F)C(=O)Nc1ccc(S(=O)(=O)N2CCC(CNC[C@H](O)c3ccc(O)c(NS(C)(=O)=O)c3)CC2)cc1 [Example 85, N-(5-{2-[(1-{4-[3-(2,6-Difluoro-benzyl)-3-methyl-ureido]-benzenesulfonyl}-piperidin-4-ylmethyl)-amino]-1-hydroxy-ethyl}-2-hydroxy-phenyl)-methanesulfonamide]
  EC50: 29 nM
  IA(β3): 1.2

## CC(C)N(Cc1cc(F)ccc1F)C(=O)Nc1ccc(S(=O)(=O)N2CCC(CNC[C@H](O)c3ccc(O)c(NS(C)(=O)=O)c3)CC2)cc1 [Example 86]
  EC50: 3 nM
  IA(β3): 0.78

## CN(Cc1cc(F)ccc1F)C(=O)Nc1ccc(S(=O)(=O)N2CCC(CNC[C@H](O)c3ccc(O)c(NS(C)(=O)=O)c3)CC2)cc1 [Example 87, N-[5-[(R)-2-[[[1-[[4-[[[[(2,5-Difluorophenyl)methyl]-methylamino]-carbonyl]amino]-phenyl]sulfonyl]-4-piperidinyl]methyl]amino]-1-hydroxyethyl]-2-hydroxyphenyl]-methanesulfonamide]
  EC50: 7 nM
  IA(β3): 1

## COC(=O)COc1ccc(CNC(=O)Nc2ccc(S(=O)(=O)N3CCC(CNC[C@H](O)c4ccc(O)c(NS(C)(=O)=O)c4)CC3)cc2)c(F)c1 [Example 88, [3-Fluoro-4-[[[[[4-[[4-[[[(R)-2-hydroxy-2-[4-hydroxy-3-[(methylsulfonyl)amino]-phenyl]ethyl]amino]-methyl]-1-piperidinyl]sulfonyl]phenyl]amino]-carbonyl]-amino]methyl]phenoxy]acetic Acid, Methyl Ester]
  EC50: 22 nM
  IA(β3): 1

## CS(=O)(=O)Nc1cc([C@@H](O)CNCC2CCN(S(=O)(=O)c3ccc(NC(=O)NCc4ccc(OCC(=O)O)cc4F)cc3)CC2)ccc1O [Example 89, [3-Fluoro-4-[[[[[4-[[4-[[[(R)-2-hydroxy-2-[4-hydroxy-3-[(methylsulfonyl)amino]phenyl]-ethy]amino]-methyl]-1-piperidinyl]sulfonyl]phenyl]amino]carbonyl]-amino]-methyl]phenoxy]acetic Acid]
  EC50: 35 nM

## CCCCCCC(=O)Nc1ccc(S(=O)(=O)N2CCC(CNC[C@H](O)COc3ccc(O)cc3)CC2)cc1 [Example 90, Heptanoic Acid [4-(4-{[(2S)-2-Hydroxy-3-(4-hydroxy-phenoxy)-propylamino]-methyl}-piperidine-1-sulfonyl)-phenyl]-amide]
  EC50: 269 nM
  IA(β3): 0.91

## O=C(NCc1c(F)cccc1F)c1ccc(S(=O)(=O)N2CCC(CNC[C@H](O)COc3ccc(O)cc3)CC2)cc1 [Example 91, N-(2,6-Difluoro-benzyl)-4-(4-{[(2S)-2-hydroxy-3-(4-hydroxy-phenoxy)-propylamino]-methyl}-piperidine-1-sulfonyl)-benzamide]
  EC50: 110 nM
  IA(β3): 0.72

## O=C(Nc1ccc(S(=O)(=O)N2CCC(CNC[C@H](O)COc3ccc(O)cc3)CC2)cc1)c1n[nH]c2ccccc12 [Example 92, 1H-Indazole-3-carboxylic Acid [4-(4-{[(2S)-2-Hydroxy-3-(4-hydroxy-phenoxy)-propylamino]-methyl}-piperidine-1-sulfonyl)-phenyl]-amide]
  EC50: 160 nM
  IA(β3): 0.82

## CN1CCN(c2ccc(S(=O)(=O)N3CCC(CNC[C@H](O)COc4ccc(O)cc4)CC3)cc2)C1=O [Example 94, 1-[4-(4-{[2-Hydroxy-3-(4-hydroxy-phenoxy)-propylamino]-methyl}-piperidine-1-sulfonyl)-phenyl]-3-methyl-imidazolidin-2-one]
  EC50: 510 nM
  IA(β3): 0.76

## CCOC(=O)c1cc2ccccc2n1-c1ccc(S(=O)(=O)N2CCC(CNC[C@H](O)c3ccc(O)c(NS(C)(=O)=O)c3)CC2)cc1 [Example 95, 1-[4-(4-{[(2R)-2-Hydroxy-2-(4-hydroxy-3-methanesulfonylamino-phenyl)-ethyl-amino]-methyl}-piperidine-1-sulfonyl)-phenyl]-1H-indole-2-carboxalic Acid Ethyl Ester]
  EC50: 125 nM
  IA(β3): 0.82

## CCOC(=O)Cc1cn(-c2ccc(S(=O)(=O)N3CCC(CNC[C@H](O)c4ccc(O)c(NS(C)(=O)=O)c4)CC3)cc2)c2ccccc12 [Example 96, {1-[4-(4-{[(2R)-2-Hydroxy-2-(4-hydroxy-3-methanesulfonylamino-phenyl)-ethylamino]-methyl}-piperidine-1-sulfonyl)-phenyl]-1H-indol-3-yl}-acetic Acid Ethyl Ester]
  EC50: 13 nM
  IA(β3): 0.85

## CS(=O)(=O)Nc1cc([C@@H](O)CNCC2CCN(S(=O)(=O)c3ccc(-n4cc(CC(=O)O)c5ccccc54)cc3)CC2)ccc1O [Example 97, {1-[4-(4-{[(2R)-2-Hydroxy-2-(4-hydroxy-3-methanesulfonylamino-phenyl)-ethylamino]-methyl}-piperidine-1-sulfonyl)-phenyl]-1H-indol-3-yl}-acetic Acid]
  EC50: 11 nM
  IA(β3): 0.96
